According to patent US20060257400A1, “COMBINATION THERAPY” (Bristol-Myers Squibb Company, priority 2005, published 2006):

Tested on: Human L2987 lung carcinomas
Assay: Antitumor testing, s.c. L2987 xenografts in nude mice
Format: in vivo
Conditions: athymic nude mice, s.c. L2987 tumors established at 100-200 mm^3; Compound I 100 mg/Kg daily; Erbitux 1 mg per mouse every three days, 5 doses; combination given essentially simultaneously
Procedure: Animals. […] They were fed food and water ad libitum. All studies involving these animals were conducted in accordance with NIH (Bethesda, Md.) and Bristol Myers-Squibb animal care and use guidelines.
Tumors. […] All efficacy testing involved tumors implanted s.c. in nude mice.

Compound: Cc1cc2c(F)c(Oc3ncnn4cc(OC[C@@H](C)OC(=O)[C@H](C)N)c(C)c34)ccc2[nH]1 [Compound I]
- delay of tumor growth to target tumor size of 500 mm^3 compared to vehicle treated control group: ten
